Biological target: T1, human orexin type 2 receptor (Homo sapiens, UniProt O43614)
T1 construct: expressed in transfected cells
T1 sequence (O43614 1-444): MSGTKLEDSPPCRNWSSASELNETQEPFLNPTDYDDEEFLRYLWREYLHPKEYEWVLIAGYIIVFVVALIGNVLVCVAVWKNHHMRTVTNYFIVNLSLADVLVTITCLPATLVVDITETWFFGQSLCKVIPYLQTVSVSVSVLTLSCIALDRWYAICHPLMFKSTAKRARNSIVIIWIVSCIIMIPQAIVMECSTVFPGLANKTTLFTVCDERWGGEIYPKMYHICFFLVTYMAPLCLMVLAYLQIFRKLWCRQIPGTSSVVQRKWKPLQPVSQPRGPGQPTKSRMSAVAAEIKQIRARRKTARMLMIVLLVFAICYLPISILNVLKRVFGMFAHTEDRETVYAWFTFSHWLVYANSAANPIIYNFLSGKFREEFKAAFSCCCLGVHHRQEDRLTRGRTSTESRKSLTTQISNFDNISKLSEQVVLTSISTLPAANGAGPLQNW
Test: Measurement of orexin type 2 receptor agonist activity (calcium fluorescence, Fluo-4 AM, FDSS) in CHO cells forcibly expressing human OX2 receptor
Assay type: cell-based
Conditions: test compound 3 μM, DMSO = 0%, orexin A (human) 10 nM = 100%
How it was run: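 CHO-dhfr cells stably expressing human OX2 receptor, loaded with Fluo-4 AM plus probenecid for 30 min at 37 °C, then 30 min at room temperature. Calcium fluorescence read for about 2 min 40 s after compound addition. Activity (%) scaled between DMSO (0%) and 10 nM human orexin A (100%).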

SMILES	0X2R agonist activity (3 μM, %)
CC(C)n1cnc2c(c1=O)[C@@H](Cc1cccc(-c3ccccc3)c1)[C@@H](NS(=O)(=O)C1(F)CC1)CC2 (racemic) [Example 146, rac-N-[(5R,6S)-5-[([1,1′-biphenyl]-3-yl)methyl]-4-oxo-3-(propan-2-yl)-3,4,5,6,7,8-hexahydroquinazolin-6-yl]-1-fluorocyclopropane-1-sulfonamide]	96%
[2H]C([2H])([2H])C([2H])([2H])n1ccc2c(c1=O)C(Cc1cccc(-c3cccc(F)c3F)c1)C(NS(C)(=O)=O)CC2 (racemic) [Example 147, rac-N-{(7S,8R)-8-[(2′,3′-difluoro[1,1′-biphenyl]-3-yl)methyl]-2-(~2~H_5_)ethyl-1-oxo-1,2,5,6,7,8-hexahydroisoquinolin-7-yl}methanesulfonamide]	100%
CC(C)n1ccc2c(c1=O)[C@@H](Cc1cccc(-c3ccccc3)n1)[C@@H](NS(C)(=O)=O)CC2 (racemic) [Example 148, rac-N-[(7S,8R)-1-oxo-8-[(6-phenylpyridin-2-yl)methyl]-2-(propan-2-yl)-1,2,5,6,7,8-hexahydroisoquinolin-7-yl]methanesulfonamide]	104%
CC(C)c1nn(C)c2c(c1=O)[C@@H](Cc1cccc(-c3ccccc3)c1)[C@@H](NS(C)(=O)=O)CC2 (racemic) [Example 158, rac-N-[(5R,6S)-5-[([1,1′-biphenyl]-3-yl)methyl]-1-methyl-4-oxo-3-(propan-2-yl)-1,4,5,6,7,8-hexahydrocinnolin-6-yl]methanesulfonamide]	101%
CC(C)N1CNC2=C(C1=O)[C@@H](Cc1cccc(-c3ccccc3)c1)[C@@H](NS(C)(=O)=O)CC2(F)F (racemic) [Example 162, rac-N-[(5R,6S)-5-[([1,1′-biphenyl]-3-yl)methyl]-8,8-difluoro-4-oxo-3-(propan-2-yl)-1,2,3,4,5,6,7,8-octahydroquinazolin-6-yl]methanesulfonamide]	101%
CCn1ccc2c(c1=O)[C@@H](Cc1cccc(-c3ccccc3)c1F)[C@@H](NS(C)(=O)=O)CC2=O (racemic) [Example 163, rac-N-{(7S,8R)-2-ethyl-8-[(2-fluoro[1,1′-biphenyl]-3-yl)methyl]-1,5-dioxo-1,2,5,6,7,8-hexahydroisoquinolin-7-yl}methanesulfonamide]	94%
CC1OCC2CCC(NS(C)(=O)=O)C(Cc3cccc(-c4cccc(F)c4)c3)N2C1=O (racemic) [Example 165, rac-N-{(3R,6S,7S,9aR)-6-[(3′-fluoro[1,1′-biphenyl]-3-yl)methyl-3-methyl-4-oxooctahydropyrido[2,1-c][1,4]oxazin-7-yl}methanesulfonamide]	97%
CCn1ccc2c(c1=O)[C@@H](Cc1cccc(-c3ccccc3)c1F)[C@@H](NS(C)(=O)=O)C[C@@H]2F (racemic) [Example 167, rac-N-{(5S,7S,8R)-2-ethyl-5-fluoro-8-[(2-fluoro[1,1′-biphenyl]-3-yl)methyl]-1-oxo-1,2,5,6,7,8-hexahydroisoquinolin-7-yl}methanesulfonamide]	93%
CC(C)n1cnc2c(c1=O)C(Cc1cccc(-c3ccccc3)c1)C(NS(C)(=O)=O)C(F)C2 (racemic) [Example 173, rac-N-[(5R,6R)-5-[([1,1′-biphenyl]-3-yl)methyl]-7-fluoro-4-oxo-3-(propan-2-yl)-3,4,5,6,7,8-hexahydroquinazolin-6-yl]methanesulfonamide]	91%
CC(C)n1cnc2c(c1=O)C(Cc1cccc(-c3ccccc3)c1)C(NS(C)(=O)=O)C(F)C2=O (racemic) [Example 179, N-[(5RS,6RS)-5-[([1,1′-biphenyl]-3-yl)methyl]-7-fluoro-4,8-dioxo-3-(propan-2-yl)-3,4,5,6,7,8-hexahydroquinazolin-6-yl]methanesulfonamide]	100%
CC(C)=Cc1cccc(C[C@@H]2c3c(ncn(C(C)C)c3=O)CC[C@@H]2NS(=O)(=O)C2(F)CC2)c1 (racemic) [Example 197, rac-1-fluoro-N-[(5R,6S)-5-{[3-(2-methylprop-1-en-1-yl)phenyl]methyl}-4-oxo-3-(propan-2-yl)-3,4,5,6,7,8-hexahydroquinazolin-6-yl]cyclopropane-1-sulfonamide]	92%
CC(C)n1cnc2c(c1=O)[C@@H](Cc1cccc(-c3ccccc3)c1F)[C@@H](NS(C)(=O)=O)[C@H](F)[C@H]2F (racemic) [Example 198, rac-N-[(5R,6R,7S,8S)-7,8-difluoro-5-[(2-fluoro[1,1′-biphenyl]-3-yl)methyl]-4-oxo-3-(propan-2-yl)-3,4,5,6,7,8-hexahydroquinazolin-6-yl]methanesulfonamide]	85%
Cn1cc2n(c1=O)[C@@H](Cc1cccc(-c3cc(F)cc(F)c3)c1)[C@@H](NS(C)(=O)=O)CC2 (racemic) [Example 201, rac-N-{(5S,6S)-5-[(3′,5′-difluoro[1,1′-biphenyl]-3-yl)methyl]-2-methyl-3-oxo-2,3,5,6,7,8-hexahydroimidazo[1,5-a]pyridin-6-yl}methanesulfonamide]	91%
CC(C)n1cc2n(c1=O)[C@@H](Cc1cccc(-c3ccccc3)c1)[C@@H](NS(C)(=O)=O)CC2 (racemic) [Example 203, rac-N-[(5S,6S)-5-[([1,1′-biphenyl]-3-yl)methyl]-3-oxo-2-(propan-2-yl)-2,3,5,6,7,8-hexahydroimidazo[1,5-a]pyridin-6-yl]methanesulfonamide]	86%
CCn1cc2n(c1=O)[C@@H](Cc1cccc(-c3ccccc3)c1F)[C@@H](NS(C)(=O)=O)CC2 (racemic) [Example 204, rac-N-{(5S,6S)-2-ethyl-5-[(2-fluoro[1,1′-biphenyl]-3-yl)methyl]-3-oxo-2,3,5,6,7,8-hexahydroimidazo[1,5-a]pyridin-6-yl}methanesulfonamide]	91%
CC(C)c1nn(C)c2c(c1=O)[C@@H](Cc1csc(-c3ccccc3)n1)[C@@H](NS(C)(=O)=O)C[C@H]2F (racemic) [Example 207, rac-N-[(5R,6S,8R)-8-fluoro-1-methyl-4-oxo-5-[(2-phenyl-1,3-thiazol-4-yl)methyl]-3-(propan-2-yl)-1,4,5,6,7,8-hexahydrocinnolin-6-yl]methanesulfonamide]	93%
Cn1cc2n(c1=O)[C@@H](Cc1cccc(-c3cc(F)cc(F)c3)c1F)[C@@H](NS(C)(=O)=O)CC2 (racemic) [Example 209, rac-N-{(5S,6S)-2-methyl-3-oxo-5-[(2,3′,5′-trifluoro[1,1′-biphenyl]-3-yl)methyl]-2,3,5,6,7,8-hexahydroimidazo[1,5-a]pyridin-6-yl}methanesulfonamide]	74%
CCc1c(C)n(C)c2c(c1=O)[C@@H](Cc1cccc(-c3ccccc3)c1)[C@@H](NS(C)(=O)=O)CC2 (racemic) [Example 211, rac-N-{(5R,6S)-5-[([1,1′-biphenyl]-3-yl)methyl]-3-ethyl-1,2-dimethyl-4-oxo-1,4,5,6,7,8-hexahydroquinolin-6-yl}methanesulfonamide]	82%
Cc1ccc2n(c1=O)C(Cc1ccc(-c3ccccc3)cc1)C(NS(C)(=O)=O)CC2 (racemic) [Example 214, rac-N-{(3S,4S)-4-[([1,1′-biphenyl]-4-yl)methyl]-7-methyl-6-oxo-1,3,4,6-tetrahydro-2H-quinolizin-yl}methanesulfonamide]	52%
CCc1ccc(C[C@H]2[C@@H](NS(C)(=O)=O)CCc3ccc(C)c(=O)n32)cc1 (racemic) [Example 216, rac-N-{(3S,4S)-4-[(4-ethylphenyl)methyl]-7-methyl-6-oxo-1,3,4,6-tetrahydro-2H-quinolizin-3-yl}methanesulfonamide]	76%
Cc1ccc2n(c1=O)[C@@H](Cc1cccc(-c3ccccc3)c1)[C@@H](NS(C)(=O)=O)CC2 (relative stereo) [Example 10, rel-N-{(3S,4S)-4-[([1,1′-biphenyl]-3-yl)methyl]-7-methyl-6-oxo-1,3,4,6-tetrahydro-2H-quinolizin-3-yl}methanesulfonamide]	101%
CCc1ccc2n(c1=O)[C@@H](Cc1cccc(-c3cccc(F)c3)c1F)[C@@H](NC(=O)C(=O)N(C)C)CC2 (relative stereo) [Example 43, rel-N~2~-{(3S,4S)-4-[(2,3′-difluoro[1,1′-biphenyl]-3-yl)methyl]-7-ethyl-6-oxo-1,3,4,6-tetrahydro-2H-quinolizin-3-yl}-N~1~,N~1~-dimethylethanediamide]	90%
COC1(C(=O)N[C@H]2CCc3ccc(C)c(=O)n3[C@H]2Cc2cccc(-c3cccc(F)c3)c2F)CC1 (relative stereo) [Example 56, rel-N-{(3S,4S)-4-[(2,3′-difluoro[1,1′-biphenyl]-3-yl)methyl]-7-methyl-6-oxo-1,3,4,6-tetrahydro-2H-quinolizin-3-yl}-1-methoxycyclopropane-1-carboxamide]	93%
Cc1ccc2n(c1=O)[C@@H](Cc1cccc(-c3cccc(F)c3)c1)[C@@H](NS(C)(=O)=O)CC2 (relative stereo) [Example 69, rel-N-{(3S,4S)-4-[(3′-fluoro[1,1′-biphenyl]-3-yl)methyl]-7-methyl-6-oxo-1,3,4,6-tetrahydro-2H-quinolizin-3-yl}methanesulfonamide]	94%
